In one assay the target is calmodulin (Homo sapiens, UniProt P0DP23). The assay can be described thus: Calcium calmodulin binding, fluorescence of dansylated calmodulin. The following applies: for Kd/IC50 AORTA K+: close to 1 indicates vascular inhibition through calmodulin; for Kd: extrapolated to 0 calmodulin, read-out: Kd (cam). As to the method: b. Fixation on calcium calmodulin binding
The orientations of synthesis which may lead to possibilities of inhibiting calmodulin are evaluated by measuring the fluorescence of dansylated calmodulin.
The substances to be tested are added to the experimental vessel (2 ml). The increase in fluorescence of dansylated calmodulin enables effect-dose curves to be constructed; measuring the EC50 gives an apparent Kd value. After extrapolation of the apparent Kd values to 0 calmodulin, the experiments carried out for different calcium-calmodulin concentration values enable the characteristic Kd values of the tested substances to be determined (Method proposed by Johnson and Wittenauer, 1983, Biochem., 211, 473-479).
d. Evaluation of the possibility of inhibition at the calmodulin level

The test system of a further assay is left auricle / aorta. The assay can be described thus: Evaluation of myocardium/vessel selectivity (IC50 LA/IC50 aorta). The following applies: IC50 LA/IC50 aorta; high values indicate vascular selectivity. The arrangement: species or system rat (male Wistar). From the text: c. Evaluation of myocardium/vessel selectivity
The IC50 LA/IC50 aorta ratio leads to a first evaluation; the high values indicate vascular selectivity.

Assay [1] has as its system aorta. The assay can be described thus: Isolated rat aorta rings stimulated with noradrenaline (10^-6 M), relaxation. The arrangement: species or system rat (male Wistar). The following applies: read-out: AORTA St:NA IC50. As to the method: (§1) a. Study of isolated organs removed from rats
(§2) Male Wistar rats weighing from 350 to 400 g are used.
(§3) After rapid sacrifice of the animal, the following are removed:
(§4) the aorta, dissected and prepared in rings; after an equilibration period of 1 hour in the reference physiological solution (1), the prepared specimens are stimulated with a solution rich in potassium (K^+) (100 mM) or with noradrenaline (NA) (10^-6 M).
(§5) The substances to be tested are then added (test sample 0.2 ml) in cumulative doses every 15 minutes.
(§6) The relaxation values obtained permit an activity-dose curve to be constructed, enabling the IC50 to be calculated in M.
(§7) The characteristics of the solutions used are as follows: […]

In assay [2] the test system is aorta. The assay can be described thus: Isolated rat aorta rings stimulated with potassium-rich solution (K+ 100 mM), relaxation. The settings on record: Rattus norvegicus, aorta rings stimulated with K+ 100 mM; read-out: AORTA St:K+ IC50. The arrangement: species or system rat (male Wistar). As to the method: as §1, §2, §3, §4, §5, §6, §7
Another assay concerns dogs. Briefly: Haemodynamic study in anaesthetised dogs. Format: in vivo, mongrel dogs. The settings on record: for dP/dt: Left ventricular pressure derivative, variation: measured at 20 minutes. As to the method:
A haemodynamic study was carried out on mongrel dogs weighing from 25 to 30 kg, which were anaesthetised with sodium pentobarbital in a dose of 30 mg/kg i.v., intubated and ventilated, and subjected to a thoracotomy at the 5th left intercostal space.
The left and aortal ventricular pressures are measured by means of MILLAR probes introduced by the femoral artery route. The cardiac frequency is measured by Biotach Gould ECG (derivation D2); the gases of the aortal blood and of the coronary sinus are analysed by an ABL3 radiometer.
The products tested were injected by the femoral vein route.

The next assay concerns left auricle (LA). The assay can be described thus: Isolated left auricle, inotropic effect. The settings on record: Rattus norvegicus; stimulated electrically at 3 Hz. The arrangement: species or system rat (male Wistar). As to the method: as §1, §2
(§8) the right auricle (RA) and left auricle (LA) RA beats spontaneously.
LA is stimulated electrically at a rate of 3 Hz (180 beats per min.) (amplitude of the stimulations: threshold×2).
(§9) Stabilisation is obtained in physiological liquid (2) after 30 minutes.
(§10) The substances to be tested are then added (test sample 0.2 ml) in cumulative doses every 15 minutes. The effects on RA are chronotropic. The effects on LA are inotropic. The construction of the activity-dose curves enables the IC50, expressed in M, to be measured.

For a further assay, the system named is right auricle (RA). Briefly: Isolated right auricle, chronotropic effect. The arrangement: species or system rat (male Wistar). The following applies: Rattus norvegicus. How it is done:
as §1, §2, §8, §9, §10

Assay [3] relates to aorta artery of the rat without endothelium. The assay can be described thus: Contraction of rat aorta without endothelium by ionophore calcium A 23187. The following applies: A 23187 at 5.10^-6 M.
[4] abbreviates: spontaneously beating, read-out: RIGHT AURICLE (RA) (CHRONOTROPIC EFFECT) IC50.

Read-outs that look alike come from different tables or passages of the source.

Here are results for four molecules from patent publication US4792559A, “1,2,3,4-tetrahydroquinoline substituted 5-aminopentanenitrile compounds and their use as calcium modulators” (ADIR et Compagnie, priority 1985, dated 1988).

On to `COc1ccc(C(C#N)(CCCN(C)CCc2ccc(OC)c3c2CCCN3C(C)=O)C(C)C)cc1OC` (centres unmarked) [Example 4, 2-(3,4-dimethoxyphenyl)-2-isopropyl-5-{N-[(1-acetyl-8-methoxy-1,2,3,4-tetrahydroquinol-5-yl)ethyl]-N-methyl-amino}-pentanenitrile], for which, on calmodulin, the “Kd/IC50 AORTA K+” value was determined as 10.8 and the Kd is 6.5 µM. The “LA/AORTA SELECTIVITY (St:K+)” value with left auricle / aorta was determined as 13. Further, the IC50 in the assay on aorta [1] turned out to be 13 µM. For the same molecule, in the assay with aorta [2], the IC50 is 0.6 µM. In the assay with dogs (IV 300 μg/kg), the “AAP: Average arterial pressure, maximum variation” value (“AAP: Average arterial pressure” for short) is on record as -14%; the “ACF: Average coronary flow, maximum variation” value (“ACF: Average coronary flow” for short) is “+84%”; the “CF: Cardiac frequency, maximum variation” value is -17%; the “I/C: Myocardial O2 intake/consumption ratio, maximum variation” value is given as “+83%”. In the assay with dogs (IV 300 μg/kg), the “PO2 SC: PO2 coronary blood sinus, maximum variation” value (“PO2 SC: PO2 coronary blood sinus” for short) is “+47%”; the “PR: PR space of the ECG, maximum variation” value (shortened to “PR: PR space of the ECG”) is reported as “+27%”; the “dP/dt: Left ventricular pressure derivative, variation” value (shortened to “dP/dt … variation”) is reported as -2%. The same molecule yielded an IC50 with left auricle (LA) of 8 µM. The half-maximal inhibitory concentration (IC50) in the assay with right auricle (RA) (setting [4]) was determined as 1.5 µM.
On to `COc1ccc(C(C#N)(CCCN(C)CCc2ccc(OC)c3c2CCCN3C(C)=O)Sc2ccccc2)cc1OC` (centres unmarked) [Example 7, 2-(3,4-dimethoxyphenyl)-2-phenylthio-5-{N-[(1-acetyl-8-methoxy-1,2,3,4-tetrahydroquinol-5-yl)ethyl]-N-methyl-amino}-pentanenitrile], for which, at calmodulin, the “Kd/IC50 AORTA K+” value is listed as 0.66 and the Kd was 0.24 µM. Moreover, on calmodulin (in vitro), the “mechanism indicated by the pharmacological effects” value is “intracellular inhibitory mechanisms and, especially, a calcium-calmodulin inhibition mechanism”. In addition, the “LA/AORTA SELECTIVITY (St:K+)” value with left auricle / aorta was 15. For the same molecule, the IC50 in the assay on aorta [1] came to 3 µM. Besides, the IC50 in the assay on aorta [2] worked out at 0.36 µM. Also, in the assay on dogs (IV 300 μg/kg), the “AAP: Average arterial pressure” value is reported as -16%; the “ACF: Average coronary flow” value was “+77%”; the “CF: Cardiac frequency, maximum variation” value is reported as -7%; the “I/C: Myocardial O2 intake/consumption ratio, maximum variation” value is “+52%”. Besides, in the assay on dogs (IV 300 μg/kg), the “PO2 SC: PO2 coronary blood sinus” value is recorded as “+36%”; the “PR: PR space of the ECG” value is “+15%”; the “dP/dt … variation” value turned out to be 0%. Besides, in the assay with dogs (IV 1000 μg/kg), the “AAP: Average arterial pressure” value was -36%; the “ACF: Average coronary flow” value is on record as “+132%”; the “CF: Cardiac frequency, maximum variation” value was -11%; the “I/C: Myocardial O2 intake/consumption ratio, maximum variation” value is reported as “+107%”. For the same molecule, in the assay on dogs (IV 1000 μg/kg), the “PO2 SC: PO2 coronary blood sinus” value is on record as “+49%”; the “PR: PR space of the ECG” value is “+37%”; the “dP/dt … variation” value was -3%. Further, in the assay on dogs (i.v., compared with Verapamil), the “negative inotropic effect / cardiotropic effect” value was “absence of a negative inotropic effect” and the “percentage increase in the PR duration” value is “reduction in the percentage increase in the PR duration”. Moreover, the IC50 with left auricle (LA) was found to be 5.5 µM. Also, the IC50 in the assay with right auricle (RA) (setting [4]) stood at 2.9 µM.
As for `COc1cccc(C(C#N)(CCCN(C)CCc2ccc(OC)c3c2CCCN3C(C)=O)C(C)C)c1` (centres unmarked) [Example 13, 2-(3-methoxyphenyl)-2-isopropyl-5-{N-[(1-acetyl-8-methoxy-1,2,3,4-tetrahydroquinol-5-yl)ethyl]-N-methyl-amino}-pentanenitrile], at calmodulin, the “Kd/IC50 AORTA K+” value was found to be 97 and the Kd was 34 µM. Also, in the assay on left auricle / aorta, the “LA/AORTA SELECTIVITY (St:K+)” value was found to be 20. In the assay on aorta [1], the IC50 came to 30 µM. In the assay with aorta [2], the IC50 was found to be 0.25 µM. In the assay on dogs (IV 100 μg/kg), the “AAP: Average arterial pressure” value was -10%; the “ACF: Average coronary flow” value is listed as “+42%”; the “CF: Cardiac frequency, maximum variation” value is -11%; the “I/C: Myocardial O2 intake/consumption ratio, maximum variation” value is recorded as “+45%”. Also, in the assay with dogs (IV 100 μg/kg), the “PO2 SC: PO2 coronary blood sinus” value is recorded as “+40%”; the “PR: PR space of the ECG” value is “+10%”; the “dP/dt … variation” value is 0%. In the assay with dogs (IV 300 μg/kg), the “AAP: Average arterial pressure” value is -23%; the “CF: Cardiac frequency, maximum variation” value is -15%; the “I/C: Myocardial O2 intake/consumption ratio, maximum variation” value is “+99%”; the “PO2 SC: PO2 coronary blood sinus” value is given as “+59%”. In the assay with dogs (IV 300 μg/kg), the “PR: PR space of the ECG” value is “+32%” and the “dP/dt … variation” value is listed as -6%. The same molecule came in with an IC50 in the assay with left auricle (LA) of 5.2 µM. For the same molecule, the IC50 with right auricle (RA) (setting [4]) was 1 µM.
Consider `COc1ccc(CCN(C)CCCC(C#N)(c2ccc(OC)c(OC)c2)C(C)C)cc1OC` (centres unmarked) [Verapamil, verapamil, reference compound], for which the IC50 in the assay on aorta [1] worked out at 14 µM. Also, the “activity on contraction by ionophore calcium A 23187” value in assay [3] was “inactive”. Also, in the assay with aorta [2], the IC50 is 0.8 µM. In addition, in the assay on dogs (IV 30 μg/kg), the “AAP: Average arterial pressure” value is -5%; the “ACF: Average coronary flow” value is recorded as “+32%”; the “CF: Cardiac frequency, maximum variation” value is reported as -4%; the “PO2 SC: PO2 coronary blood sinus” value is “+18%”. The “PR: PR space of the ECG” value with dogs (IV 30 μg/kg) is “+6%”. In addition, in the assay with dogs (IV 100 μg/kg), the “AAP: Average arterial pressure” value is reported as -16%; the “ACF: Average coronary flow” value is listed as “+87%”; the “CF: Cardiac frequency, maximum variation” value was -9%; the “PO2 SC: PO2 coronary blood sinus” value is “+42%”. Further, in the assay on dogs (IV 100 μg/kg), the “PR: PR space of the ECG” value is reported as “+14%” and the “dP/dt … variation” value is reported as -5%. In the assay with dogs (IV 300 μg/kg), the “AAP: Average arterial pressure” value is on record as -21%; the “ACF: Average coronary flow” value is on record as “+99%”; the “CF: Cardiac frequency, maximum variation” value is listed as -8%; the “PO2 SC: PO2 coronary blood sinus” value is “+71%”. Also, in the assay with dogs (IV 300 μg/kg), the “PR: PR space of the ECG” value is reported as “+40%” and the “dP/dt … variation” value is listed as -13%. In addition, in the assay on left auricle (LA), half-maximal inhibition (IC50) was put at 2 µM. The concentration for half-maximal inhibition (IC50) in the assay with right auricle (RA) (read-out: RIGHT AURICLE (RA) (CH[…]) IC50) turned out to be 2 µM.
